Values of other authors as cited in patent US20060067952A1, “Low oil emulsion compositions for delivering taxoids and other insoluble drugs” (SD Pharmaceuticals, Inc., priority 2004, published 2006).
Where two headings read alike, the source gives them in different places.

Settings: 25° C.

Volume of solvent required to dissolve 1 gram of the drug (H2O): 300 mL | Volume of solvent required to dissolve 1 gram of the drug (ethanol): 5 mL
Structure (SMILES): CC(=O)Oc1ccccc1C(=O)O [aspirin]
